Columns and labels:
Aspergillus flavus = assay: Agar plate disc-diffusion, antifungal activity by inhibition zone; details: Sabouraud's dextrose agar, 37° C., 72 hours, DMSO zone subtracted
[1] = system: Chrysosporium keratinophilum; assay: as above; details: Sabouraud's dextrose agar, 37° C., 72 hours, DMSO zone subtracted
Bacillus cereus = assay: Agar plate disc-diffusion, antibacterial activity by inhibition zone; details: nutrient agar, 37° C., 48 hours, DMSO zone subtracted
Staphylococcus aureus = assay: as above; details: nutrient agar, 37° C., 48 hours, DMSO zone subtracted
Pseudomonas aeruginosa = assay: as above; details: nutrient agar, 37° C., 48 hours, DMSO zone subtracted
Escherichia coli = assay: as above; details: nutrient agar, 37° C., 48 hours, DMSO zone subtracted
[2] = A = concentration of comp. = 10,000 μL
[3] = B = concentration of comp. = 30.000 μL
[4] = C = concentration of comp. = 50,000 μL

For `N/C(=N\OC(=O)CSc1nnc(-c2ccccc2)o1)c1ccc2ccccc2c1` [Comp 3, N′-(2-(5-phenyl-1,3,4-oxadiazol-2-ylthio)acetoxy)-2-naphthimidamide], the “inhibition zone, Aspergillus flavus” value (Aspergillus flavus; [2]) was 26 mm, the “inhibition zone, Aspergillus flavus” value (Aspergillus flavus; [3]) was 29 mm and the “inhibition zone, Aspergillus flavus” value (Aspergillus flavus; [4]) was 39 mm. For the same compound, the “inhibition zone, Chrysosporium keratinophilum” value [1, 2] was 31 mm, the “inhibition zone, Chrysosporium keratinophilum” value [1, 3] was 39 mm and the “inhibition zone, Chrysosporium keratinophilum” value [1, 4] was 45 mm. The “inhibition zone, Bacillus Cereus” value (Bacillus cereus; [2]) was 28 mm, the “inhibition zone, Bacillus Cereus” value (Bacillus cereus; [3]) was 32 mm and the “inhibition zone, Bacillus Cereus” value (Bacillus cereus; [4]) was 40 mm. For the same compound, the “inhibition zone, Staphylococcus aureus” value (Staphylococcus aureus; [2]) was 25 mm, the “inhibition zone, Staphylococcus aureus” value (Staphylococcus aureus; [3]) was 31 mm and the “inhibition zone, Staphylococcus aureus” value (Staphylococcus aureus; [4]) was 40 mm. The “inhibition zone, Pseudomonas aeruginosa” value (Pseudomonas aeruginosa; [2]) was 27 mm, the “inhibition zone, Pseudomonas aeruginosa” value (Pseudomonas aeruginosa; [3]) was 34 mm and the “inhibition zone, Pseudomonas aeruginosa” value (Pseudomonas aeruginosa; [4]) was 40 mm. For the same compound, the “inhibition zone, Escherichia coli” value (Escherichia coli; [2]) was 31 mm, the “inhibition zone, Escherichia coli” value (Escherichia coli; [3]) was 39 mm and the “inhibition zone, Escherichia coli” value (Escherichia coli; [4]) was 48 mm.

From patent publication US11958815B1, “N′-(2-(5-phenyl-1,3,4-oxadiazol-2-ylthio)acetoxy)-2-naphthimidamide as antimicrobial compound” (KING FAISAL UNIVERSITY, priority 2023, dated 2024)
